Test results: patent publication US12162858B2, “Quinoline derivatives as inhibitors of AXL/MER RTK and CSF1R” (QURIENT CO., LTD., priority 2018, dated 2024)

Columns and labels:
Format in all cases: cell-based
[1] = target: CSF1R (Ba/F3 cells) (Homo sapiens, UniProt P07333); assay: BaF3 viability assay, CSF1R-dependent cells; details: read-out: Cellular CSF1R activity by Ba/F3 assay (IC50)
From the text: (§1) In this system, IL-3-dependent Ba/F3 cells are modified to express an activated recombinant kinase (in the present case Axl, Mer and CSF1R). Following removal of IL-3, the modified cells are dependent on the activity of the recombinant kinase for survival and proliferation. Inhibition of such kinase(s) through test compounds reduces survival and proliferation of the cells.
(§2) Cell lines were maintained in growth media (GM) consisting of RPMI 1640 supplemented with 10% FBS. Cells in logarithmic-phase growth were harvested and 5,000 cells were distributed into each well of a 384-well plate in 50 μl GM. Parental cells (or experimental assays where specified) were further supplemented with 2 ng/ml IL-3 to support cell growth and survival. Fifty nanoliters of the indicated reference standard or experimental compound were added to appropriate wells (in duplicate) and the cells were cultured for 48 h at 37° C./5% CO2. Viability was determined by adding 10 μl Cell Titer Glo and measuring luminescence, which is reported as relative light units (RLU) measured in counts per second. The following calculations and formulas are used for data analysis using GraphPad Prism software: The curve fitting was made using the Dose response curves-Inhibition.

[2] = target: T1, Axl (Ba/F3 cells) (Homo sapiens, UniProt P30530); assay: BaF3 viability assay, Axl-dependent cells; details: read-out: Cellular Axl activity by Ba/F3 assay (IC50)
T1 sequence (P30530 1-894): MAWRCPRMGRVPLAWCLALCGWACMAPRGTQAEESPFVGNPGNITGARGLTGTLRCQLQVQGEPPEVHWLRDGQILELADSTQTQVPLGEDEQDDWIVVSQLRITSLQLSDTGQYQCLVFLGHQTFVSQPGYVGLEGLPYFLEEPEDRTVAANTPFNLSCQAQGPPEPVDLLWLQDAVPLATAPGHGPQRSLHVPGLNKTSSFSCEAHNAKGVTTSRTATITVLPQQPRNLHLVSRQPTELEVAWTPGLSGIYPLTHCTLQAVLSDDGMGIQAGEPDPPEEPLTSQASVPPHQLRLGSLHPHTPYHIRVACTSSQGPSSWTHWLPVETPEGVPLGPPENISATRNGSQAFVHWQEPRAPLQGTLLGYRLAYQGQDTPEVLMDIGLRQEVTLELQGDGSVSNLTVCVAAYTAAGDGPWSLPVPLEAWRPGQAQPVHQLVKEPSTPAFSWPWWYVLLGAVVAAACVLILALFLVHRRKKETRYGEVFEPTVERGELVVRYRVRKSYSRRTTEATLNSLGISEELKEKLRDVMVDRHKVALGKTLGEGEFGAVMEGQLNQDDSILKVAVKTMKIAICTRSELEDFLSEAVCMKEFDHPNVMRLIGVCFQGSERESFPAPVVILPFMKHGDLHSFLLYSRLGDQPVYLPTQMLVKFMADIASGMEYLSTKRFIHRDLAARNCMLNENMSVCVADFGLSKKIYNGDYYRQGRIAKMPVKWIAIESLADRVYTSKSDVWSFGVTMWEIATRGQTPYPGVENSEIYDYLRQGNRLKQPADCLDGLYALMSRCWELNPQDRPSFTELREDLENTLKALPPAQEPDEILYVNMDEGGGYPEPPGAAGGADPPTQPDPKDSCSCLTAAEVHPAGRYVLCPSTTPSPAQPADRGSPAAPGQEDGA
From the text: as §1, §2

[3] = target: T2, Mer (Ba/F3 cells) (Homo sapiens, UniProt Q12866); assay: BaF3 viability assay, Mer-dependent cells; details: read-out: Cellular Mer activity by Ba/F3 assay (IC50)
T2 sequence (Q12866 1-999): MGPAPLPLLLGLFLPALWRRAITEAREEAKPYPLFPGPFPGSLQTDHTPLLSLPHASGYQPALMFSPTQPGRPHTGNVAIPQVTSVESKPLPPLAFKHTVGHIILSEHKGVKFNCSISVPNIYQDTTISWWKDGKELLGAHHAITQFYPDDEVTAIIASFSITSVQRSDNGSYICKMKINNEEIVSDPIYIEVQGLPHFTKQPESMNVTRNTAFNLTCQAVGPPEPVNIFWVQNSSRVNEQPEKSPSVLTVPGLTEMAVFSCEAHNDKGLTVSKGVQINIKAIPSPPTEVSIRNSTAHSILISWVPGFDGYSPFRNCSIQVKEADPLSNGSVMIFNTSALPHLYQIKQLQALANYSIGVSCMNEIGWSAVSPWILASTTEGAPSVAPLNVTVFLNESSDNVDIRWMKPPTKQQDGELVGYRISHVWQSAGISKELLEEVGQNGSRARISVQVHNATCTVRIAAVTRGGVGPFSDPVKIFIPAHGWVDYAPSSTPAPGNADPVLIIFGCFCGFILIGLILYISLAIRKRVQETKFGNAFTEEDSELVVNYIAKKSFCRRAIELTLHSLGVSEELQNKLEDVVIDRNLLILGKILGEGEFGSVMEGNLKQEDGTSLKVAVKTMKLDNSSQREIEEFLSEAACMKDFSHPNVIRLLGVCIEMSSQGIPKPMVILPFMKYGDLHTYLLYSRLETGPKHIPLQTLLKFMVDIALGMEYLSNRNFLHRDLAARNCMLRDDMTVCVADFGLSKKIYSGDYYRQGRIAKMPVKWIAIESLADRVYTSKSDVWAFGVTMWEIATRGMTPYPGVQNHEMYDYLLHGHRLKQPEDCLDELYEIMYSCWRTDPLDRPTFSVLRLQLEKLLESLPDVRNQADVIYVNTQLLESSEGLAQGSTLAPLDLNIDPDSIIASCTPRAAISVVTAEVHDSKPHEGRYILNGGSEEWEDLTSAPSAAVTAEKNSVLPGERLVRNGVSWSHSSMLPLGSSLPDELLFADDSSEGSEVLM
From the text: as §1, §2

Measured: GI50

CSF1R (Ba/F3 cells), sequence (P07333 whole entry, change not shown): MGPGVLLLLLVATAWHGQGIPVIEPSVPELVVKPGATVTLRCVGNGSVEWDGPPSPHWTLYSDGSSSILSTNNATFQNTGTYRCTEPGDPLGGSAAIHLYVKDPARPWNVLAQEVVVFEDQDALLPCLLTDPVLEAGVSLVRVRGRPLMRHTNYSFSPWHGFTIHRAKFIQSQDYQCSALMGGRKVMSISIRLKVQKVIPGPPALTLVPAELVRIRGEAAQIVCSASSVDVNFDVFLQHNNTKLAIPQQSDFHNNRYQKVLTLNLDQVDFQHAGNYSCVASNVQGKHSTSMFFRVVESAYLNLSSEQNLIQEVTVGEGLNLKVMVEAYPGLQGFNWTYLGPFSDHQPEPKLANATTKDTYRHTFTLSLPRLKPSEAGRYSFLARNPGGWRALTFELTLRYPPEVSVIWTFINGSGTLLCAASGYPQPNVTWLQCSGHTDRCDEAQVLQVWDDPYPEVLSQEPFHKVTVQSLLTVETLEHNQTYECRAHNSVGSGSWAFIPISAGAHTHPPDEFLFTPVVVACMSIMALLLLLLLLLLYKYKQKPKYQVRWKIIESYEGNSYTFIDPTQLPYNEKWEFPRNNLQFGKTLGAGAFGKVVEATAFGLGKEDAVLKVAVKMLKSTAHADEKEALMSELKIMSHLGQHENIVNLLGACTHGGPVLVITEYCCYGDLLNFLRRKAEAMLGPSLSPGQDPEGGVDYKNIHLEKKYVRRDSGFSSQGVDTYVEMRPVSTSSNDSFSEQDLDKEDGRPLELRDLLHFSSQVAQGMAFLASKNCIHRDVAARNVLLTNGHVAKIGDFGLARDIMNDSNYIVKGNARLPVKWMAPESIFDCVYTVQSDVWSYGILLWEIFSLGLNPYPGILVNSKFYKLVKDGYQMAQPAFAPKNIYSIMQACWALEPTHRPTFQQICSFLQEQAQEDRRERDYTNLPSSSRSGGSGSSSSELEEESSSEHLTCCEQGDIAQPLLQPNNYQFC

COc1cc2nccc(Oc3ccc(NC(=O)c4nn(C5CC5)cc4OCC(F)(F)F)nc3)c2cc1OC [Compound 5]
< 1000 nM: all assays above
